Values of other authors in US7662571B2, “Mitochondrial markers of ischemia” (Nourheart Inc., priority 2005, dated 2010).
One block for each substance: values may come before it. No end group written: not given here.

Experiments:
[1] = test system: neutrophils
[2] = biological target: T1, FMLP receptor (68-kDa protein) (Homo sapiens, UniProt P21462)
T1 sequence (P21462 1-350): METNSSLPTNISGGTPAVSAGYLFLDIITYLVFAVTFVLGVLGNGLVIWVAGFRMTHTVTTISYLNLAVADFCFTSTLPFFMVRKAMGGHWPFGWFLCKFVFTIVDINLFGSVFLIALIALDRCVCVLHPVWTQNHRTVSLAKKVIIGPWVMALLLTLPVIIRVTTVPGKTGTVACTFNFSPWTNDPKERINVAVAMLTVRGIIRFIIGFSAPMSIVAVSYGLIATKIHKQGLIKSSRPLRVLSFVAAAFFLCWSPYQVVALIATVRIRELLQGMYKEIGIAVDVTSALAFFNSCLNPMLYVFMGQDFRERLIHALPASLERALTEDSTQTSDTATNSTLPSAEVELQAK

[3] = biological target: T2, FPR-like 2 (FPRL2) (Homo sapiens, UniProt P25089); settings: FPRL2, low-affinity receptor
T2 sequence (P25089 1-353): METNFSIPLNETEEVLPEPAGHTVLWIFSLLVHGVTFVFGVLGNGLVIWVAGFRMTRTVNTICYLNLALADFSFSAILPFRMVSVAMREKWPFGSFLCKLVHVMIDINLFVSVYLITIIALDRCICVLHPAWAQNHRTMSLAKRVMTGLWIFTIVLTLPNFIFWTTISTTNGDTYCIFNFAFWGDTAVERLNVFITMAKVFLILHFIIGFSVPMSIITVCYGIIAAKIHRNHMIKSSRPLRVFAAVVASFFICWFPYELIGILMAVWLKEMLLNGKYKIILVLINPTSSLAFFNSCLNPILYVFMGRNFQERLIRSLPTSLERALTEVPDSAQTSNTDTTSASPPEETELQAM

Substance: LVVYPWT [spinorphin, Leu-Val-Val-Tyr-Pro-Trp-Thr]
chemotaxis of neutrophils caused by the low mwt chemoattractant [1]: inhibited

inhibition of ligand binding to the 68-kDa protein [2]: strongest inhibitor of ligand binding
Substance: RKAMGGHWPFGWFLCKFl (FMLP receptor derived peptide) [synthetic 17-aa peptide]

Substance: formyl-Met-Leu-Phe [fMLP]
concentration needed for receptor activation [3]: only activated by high (micromolar) concentrations
